The values below come from patent US8299237B2, “Nucleic acid sequences comprising NF-κB binding site within O(6)-methylguanine-DNA-methyltransferase (MGMT) promoter region and uses thereof for the treatment of cancer and immune-related disorders” (Hadasit Medical Research Services & Development Ltd., priority 2007, dated 2012).

One series relates to HEK293 cells. The series is described as follows: BG and BCNU treatment, crystal violet viability test in transfected HEK293. It counts as cell-based, human. To be noted: BG 80 μM added 4-6 hrs after transfection; control and p65 transfected HEK293; BCNU 20-80 μg/ml 2 hrs. The procedure:
(§1) Various glioma cell lines (A172, U87MG, and T98G) or HEK293 were transiently transfected with different plasmids as indicated above. For the BG-treated groups, BG (Benzyl Guanine, an MGMT inhibitor) was added to the cell medium 4-6 hrs after transfection at a final concentration of 80 μM and incubated with the cells for the duration of the experiment. At 24 hrs following transfection, the cells were exposed for 2 hrs to increasing concentrations of BCNU (as indicated), which is a β-chloro-nitrosourea compound used as an alkylating agent in chemotherapy. The cells were fixed 48 hrs later with 4% paraformaldehyde for 20 min at room temperature, and washed twice with PBS. A 400 μl volume of 0.5% crystal violet in dH2O was added and the cells were stained for 15 min on a vibrator at 300 rpm. The dye was aspirated, the wells rinsed with dH2O, and the plate was allowed to dry in the hood. For destaining, 400 μl of 10% acetic acid were added to each well and the cells were incubated for 15 min on a vibrator at 300 rpm. The optical density (OD590) of the de-stained solution in each well was read and recorded.
(§2) To determine whether this also results in induction of cellular resistance to alkylating agents, the sensitivity of the three glioma cell lines to increasing quantities of BCNU (5-80 μg/ml), was next compared. […]

For series [1], the system named is MGMT-kB1-Luc reporter construct induced by NF-κB/p65. The series is described as follows: Luciferase reporter assay, MGMT-kB1-Luc co-transfected with NF-κB/p65. To be noted: for effect on luciferase activity driven by MGMT-kB1 reporter (in words): HEK293T co-transfected with MGMT-kB1 reporter and NF-κB/p65. It counts as cell-based, human. The procedure: (§3) Transient transfections were performed in 6-well plates, using the FuGene6 transfection reagent (Roche Diagnostics GmbH, Mannheim, Germany), according to the manufacturer's instructions. U87MG, T98G, and A172 cells were transfected with pNF-κB-Luc reporter Vector (Clontech, Palo Alto, Calif.), while RG2 and U87MG were transfected with MGMT-Luc [construct p-954/+24 mL [Biswas T. et al. Oncogene 18:525-32 (1999)] kindly provided by Sankar Mitra] (1 μg/well). CMVβ-galactosidase expression vector (CMVβgal-Clonthech) was included (0.1 μg/well) in each transfection to normalize transfection efficiency. HEK293 cells were transfected with CMVβgal alone or along with one or more of the following plasmids: CMVp65, CMVΔNIκB, CMVp50, CMVcJun. CMVp65 and CMVΔNIκB plasmids were kindly provided by Prof. Yinon. Ben-Neriah (The Hebrew University, Jerusalem, Israel), CMVp50 and CMVcJun were kindly provided by Dr. Danielle Melloul (Hadassah Hebrew University Medical Center, Jerusalem, Israel).
At 24 hrs following transfection, the cells were lysed for 15 min on ice with 200 μl of luciferase lysis buffer (Promega, Madison, Wis.). Luciferase assays were carried out using a Promega assay kit and a luminometer (EG&G Berthold, Bad Wildbad, Germany). The activity was normalized to β-galactosidase activity (Promega) and plotted as the mean±s.d. of triplicates from a representative experiment.
For the cloning of the MGMT-luc constructs the reporter vector p-TA-Luc (Clontech, Palo Alto, USA) was used. The plasmid contains TATA box motif upstream to a luciferase reporter gene. A double stranded DNA corresponding to four repeats of each sequence as indicated by FIG. 8A (also denoted by SEQ ID NO. 44, 45, 46 and 47), was synthesis by syntezza LTD and ligated upstream to the TATA box.
To test the activity of these sites, several luciferase reporter genes bearing four copies of either intact or mutant sequence, of each of the two NF-κB sites (NF-κB1 and NF-κB2), were constructed as indicated in Experimental procedures. […] An inhibition of approximately 50% was observed using 100 nM ODN. Negative control using the CMVΔNIκB (ΔN)-Luc construct as well as positive control using the canonical HIV-κB-Luc reporter construct, confirmed validity of the data.
Induction of over expression of NF-κB in HEK 293T cells by transfection of a CMV-NF-κB/p65 generated a 50-fold elevation in luciferase expression driven by the Co-transfected reporter construct MGMT-kB1-Luc. […] Inhibition of approximately 90% was induced by 150 nM LMODN. […] No inhibition was detected when a mutant LMODN was introduced into the cells, indicating the specificity of MGMT-kB1-LMODN (of SEQ ID NO. 40 and 41). […] 3 (HIV-κB-Luc construct).
A general note: Reporter assays use an easily measured gene product as a stand-in for the process of interest.

Series [2] deals with canonical NF-κB binding site from HIV (HIV-κB-Luc construct). The series is described as follows: Luciferase reporter assay, HIV-κB-Luc construct induced by p65. Particulars: 150 nm LMODN. Type of series: cell-based, human. The procedure:
as §3, with “Israel). […]” for “Israel).”
Induction of over expression of NF-κB in HEK 293T cells by transfection of a CMV-NF-κB/p65 generated a 50-fold elevation in luciferase expression driven by the Co-transfected reporter construct MGMT-kB1-Luc. […] No inhibition was detected when a mutant LMODN was introduced into the cells, indicating the specificity of MGMT-kB1-LMODN (of SEQ ID NO. 40 and 41). […]

For series [3], the system named is T98MG gliomas cell line. Type of series: cell-based, human. The procedure: (§4) T98MG glioma cell line cells were treated with increasing doses of the decoy ODN's of the invention. Double stranded ODNs (30mers), corresponding to MGMT-κB1 binding site (as also denoted by SEQ. ID. NO. 1), and control ODNs were purchased from IDT. Each strand of ODN was thirty-mers and contained six LNA nucleotides. The following ODNs were used: MGMT-kB1forward: 5′---+T+AATGGGG+ACTTTAC GGG+[…]+A+T---3′ (as also denoted by SEQ. ID. NO. 40) with or without the 5′ end labeled with carboxyfluorescein-5-succimidyl ester (FAM). The MGMT-kB1 reverse ODN: 5′---+A+TTCTGTA+[…]+[…]+T+A---3′ as also denoted by SEQ ID NO. 41). Control forward: 5′---+T+AG TGT CG+A CTT CAC TCT+ACT TGA CAG A+A+T---3′ (as also denoted by SEQ ID NO. 42), control reverse: 5′---+A+TT CTG TC+A AGT AGA GTG+AAG TCG ACA C+T+A---3′ as also denoted by SEQ ID NO. 43). It should be noted that (+designated as nucleotide containing an LNA modification).
The viability of the cells was tested 24-48 hrs later by CellTiter-Blue assay (Promega®). The assay was carried out according to the supplier's instructions. Briefly, the assay is based on the ability of living cells to convert a redox dye (resazurin) into a fluorescent end product (resorufin). Cell viability estimation is done by measuring the fluorescent intensity of resorufin (ex. 560 nm, em. 590 nm) using a fluorescent microplate reader.
The inventors next tested the potential of the decoy LMODN molecules of the invention to sensitize tumor cells to alkylating agents and thereby improve their efficacy as anti-cancerous treatment. Therefore, several human cancer cell lines were treated with alkylating agents with increasing doses of MGMT-kB1-ODN followed by cell viability tests. First, the sensitivity of each cell line to several alkylating agents, mainly temozolomide (TMZ) and BCNU was calibrated. At 24 hrs following sowing, cells were exposed for two hours to increasing concentrations of the alkylating agent and viability of the cells was tested 24-48 hrs later by CellTiter-Blue assay (Promega®). To test the potential of MGMT-kB1-LMODN to sensitize tumor cells to alkylating agents in-vitro, increasing doses of LMODNs MGMT-kB1 forward and reverse as denoted by SEQ ID NO. 40 and 41, respectively), with or without the 5′ end labeled with carboxyfluorescein-5-succimidyl ester (FAM), as well as the control LMODNs (as denoted by SEQ ID NO. 42 and 43), were liposomally introduced (Lipofectamine 2000, Invitrogen) to various tumor cancer cells. Twenty four hours later, cells were treated with the different doses of alkylating agents as calibrated before.
FIG. 9 represents an example of T98MG gliomas cell line sensitized to alkylating agents in response to treatment with the LMODN's of the invention. […]

Series [4] deals with glioma cell lines A172, U87MG and T98G. Nature of the series: BCNU crystal violet viability test in glioma cell lines. It counts as cell-based. To be noted: BCNU 5-80 μg/ml, 2 hrs; viability 48 hrs later; p<0.001. The procedure:
as §1, §2

For series [5], the system named is T98MG gliomas cell line. Type of series: cell-based, human. To be noted: corresponding concentrations, 48 hours. The procedure:
as §4
The viability of the cells was tested 24-48 hrs later by CellTiter-Blue assay (Promega®). The assay was carried out according to the supplier's instructions. Briefly, the assay is based on the ability of living cells to convert a redox dye (resazurin) into a fluorescent end product (resorufin). Cell viability estimation is done by measuring the fluorescent intensity of resorufin (ex. 560 nm, em. 590 nm) using a fluorescent microplate reader. […]

“Also recorded” adds a separate entry of the source.

For the compound `Nc1nc(OCc2ccccc2)c2nc[nH]c2n1` [BG, O6-Benzylguanine], the “effect of BG on sensitivity to BCNU (in words)” value with HEK293 cells was “augmented the cell sensitivity to BCNU; also recorded: completely abrogated the p65-induced chemoresistance”.
Consider “MGMT-kB1-LMODN: double stranded 30-mer LNA modified decoy ODN of MGMT-κB1 site; forward SEQ ID NO. 40, reverse SEQ ID NO. 41 (sense TAATGGGGACTTTACGGGACTTTACAGAAT; antisense ATTCTGTAAAGTCCCGTAAAGTCCCCATTA; LNA modified, positions not given here; listed as Homo sapiens) [double stranded 30-mer LNA modified decoy ODN of MGMT-κB1 site; 41]”, for which the “inhibition of luciferase activity” value in series [1] (150 nM LMODN, liposomal, HEK 293T, MGMT-kB1-Luc + NFκB/p65 (FIG. 8)) is “approximately 90%”. The “effect on luciferase activity driven by MGMT-kB1 reporter (in words)” value in series [1] is “inhibited the luciferase activity in a dose-dependent manner”. Moreover, the “inhibitory activity relative to NF-κB super repressor ΔNI-κB” value in series [1] (LMODN at 150 nM) is “two fold greater”. Further, the “inhibition of p65-induced luciferase expression” value in series [2] stood at 57%. In addition, the “toxicity to cells, viability of cells treated only with the LMODN” value in the series on T98MG gliomas cell line [3] is reported as “not toxic to the cells”. This compound also yielded a live cells in the series on T98MG gliomas cell line [3] (2.5 mM TMZ with 2 nm LMODN) of 22%.
In the case of `O=NN(CCCl)C(=O)NCCCl` [BCNU, 1,3-bis(2-chloroethyl)-1-nitrosourea], the “resistance of T98G to BCNU compared with A172 and U87MG (in words)” value in series [4] was “more resistant”.
In the case of “mMGMT-kB1-LMODN: mutant control LNA modified ODN; control forward SEQ ID NO. 42, control reverse SEQ ID NO. 43 (sense TAGTGTCGACTTCACTCTACTTGACAGAAT; antisense ATTCTGTCAAGTAGAGTGAAGTCGACACTA; LNA modified, positions not given here; listed as Homo sapiens) [mutant control LNA modified ODN; 43]”, the “effect on luciferase activity driven by MGMT-kB1 reporter (in words)” value in series [1] is “No inhibition”. Moreover, in the series with T98MG gliomas cell line [3] (2.5 mM TMZ with mutant LMODN (FIG. 9)), the “additive effect with TMZ (in words)” value is recorded as “no any additive effect”. Moreover, in the series with T98MG gliomas cell line [5], the “effect on cell survival (in words)” value is “no reduction in cell survival”.
